Tested on: CD1 female mouse brain lipidome
Experiment: Brain-region lipid levels (HPLC/MS/MS lipidomics) 2 h after single i.p. 3 mg/kg CP 55,940 vs vehicle
Type: in vivo
Parameters: N-arachidonoyl phenylalanine level, Mean / N-stearoyl tryptophan level, Mean / N-stearoyl proline level, Mean / N-stearoyl leucine level, Mean / N-stearoyl phenylalanine level, Mean / N-stearoyl serine level, Mean / N-stearoyl methionine level, Mean: unit: moles per gram
Description: The Bloomington Institutional Animal Care and Use Committee of Indiana University reviewed and approved the animal procedures. Female mice from the CD1 strain were utilized to match our study examining THC’s effects on the brain lipidome ([Leishman et al., 2018]). Mice were given a single i.p. injection of either 3 mg/kg CP or 1:1:18 cremophor:ethanol:saline vehicle (please refer to the section “3 mg/kg CP Is Relevant for Synthetic Cannabinoid Abuse and Has Stronger Effects on the Female Mouse Brain Lipidome During Adolescence” for a justification of dose and use of female mice). Three different age groups were given injections: PND 35 and PND 50 adolescents, and adult mice (PND 113). At least eight mice in each age group received CP and at least eight received vehicle. Matching the THC study time course ([Leishman et al., 2018]), mice were sacrificed via rapid decapitation 2 h after injection. Brains were immediately removed and flash-frozen in liquid nitrogen, and then stored at -80°C until dissections were performed. Brains were dissected on an ice-cold dissection plate into the following regions: STR, HIPP, CER, THAL, CTX, HYP, MID, and STEM. These abbreviations for these brain areas will be used exclusively when discussing the results generated by these specific dissections. Each dissected area was immediately placed in liquid nitrogen and then stored at -80°C until used for lipid extraction.
Tissue extracts were performed as previously described ([Bradshaw et al., 2006]; [Stuart et al., 2013]; [Raboune et al., 2014]; [Leishman et al., 2016a],[b], [2017], [2018]). First, samples were shock frozen in liquid nitrogen, weighed, and transferred to a centrifuge tube. The mass of the largest sample was multiplied by 50 to determine how many milliliters of HPLC-grade methanol (Fisher, Fair Lawn, NJ, United States) to add. Then, samples were spiked with 500 pmol deuterium-labeled NAGly (d8NAGly; Cayman Chemical, Ann Arbor, MI, United States). Samples were placed on ice in darkness for 2 h then individually homogenized and centrifuged at 19,000 × g for 20 min at 20°C. Supernatants were diluted with HPLC water (purified in house) to make a solution of 75% water, 25% supernatant. Lipids were partially purified on C18 solid phase extraction columns (Agilent, Palo Alto, CA, United States). A series of four elutions with 1.5 mL of 60%, 75%, 85%, and 100% methanol were collected ([Stuart et al., 2013]; [Leishman et al., 2016a],[b], [2018]).
As previously described ([Bradshaw et al., 2006]; [Tan et al., 2006]; [Smoum et al., 2010]; [Stuart et al., 2013]; [Tortoriello et al., 2013]; [Raboune et al., 2014]; [Leishman et al., 2016a],[b], [2017], [2018]), samples were analyzed using an Applied Biosystems API 3000 triple quadrupole mass spectrometer with electrospray ionization (Foster City, CA, United States). Using an Agilent XDB-C18 reversed phase analytical column and optimized mobile phase gradients, 20 μL from each elution were chromatographed. Two Shimadzu 10ADvp pumps (Columbia, MD, United States) provided the pressure for gradient elution. Mobile phase A: 20% methanol, 80% water (v/v) and 1 mM ammonium acetate (Sigma, St. Louis, MO, United States). Mobile phase B: 100% methanol, 1 mM ammonium acetate. Every method run began with 0% mobile phase B, reached 100% mobile phase B flowing at 0.2 mL/min, and gradually returned to 0% mobile phase B.
This screening library will be referred to as the lipidome when discussing data from this study. HPLC/MS/MS data were analyzed using Analyst software (Applied Biosystems) ([Bradshaw et al., 2006]; [Tan et al., 2006]; [Stuart et al., 2013]; [Tortoriello et al., 2013]; [Raboune et al., 2014]; [Leishman et al., 2016a],[b], [2017], [2018]). Chromatograms (Supplementary Figure 3) were generated by determining the retention time of analytes from the analytical column with a [M-1] or [M+1] parent peak and a fragmentation peak corresponding to the programmed values. […]

[1] = adult brainstem, 3mg/kg CP 55,940

## CCCCCCC(C)(C)c1ccc([C@@H]2C[C@H](O)CC[C@H]2CCCO)c(O)c1 [CP 55,940]
Adult HIPP
  N-stearoyl serine level vs vehicle: ↓ (1-1.49 times lower than vehicle)
  PGE2 level vs vehicle: ↑ (1-1.49 times higher than vehicle)
  PGE2 mean level in CP group divided by vehicle group: 1.18
  PGF2α level vs vehicle: ↑ (1-1.49 times higher than vehicle)
  number of lipids changed: 12
  phosphoLEA level vs vehicle: ↑ (1-1.49 times higher than vehicle)
Adult HIPP, CP group
  PGE2 mean level: 3.37x10^-10 moles per gram
Adult HYP
  6-ketoPGF1α level vs vehicle: ↓↓ (1.50-1.99 times lower than vehicle)
  N-arachidonoyl GABA level vs vehicle: ↓ (1-1.49 times lower than vehicle)
  N-arachidonoyl taurine level vs vehicle: ↑ (1-1.49 times higher than vehicle)
  N-palmitoyl phenylalanine level vs vehicle: ↑↑ (1.50-1.99 times higher than vehicle)
  PGE2 level vs vehicle: ↑ (1-1.49 times higher than vehicle)
  PGF2α level vs vehicle: ↓ (1-1.49 times lower than vehicle)
  number of lipids changed: 7
  phosphoLEA level vs vehicle: ↓ (1-1.49 times lower than vehicle)
Adult MID
  2-arachidonoyl glycerol level vs vehicle: ↓ (1-1.49 times lower than vehicle)
  2-linoleoyl glycerol level vs vehicle: ↓ (1-1.49 times lower than vehicle)
  2-oleoyl glycerol level vs vehicle: ↓ (1-1.49 times lower than vehicle)
  6-ketoPGF1α level vs vehicle: ↑ (1-1.49 times higher than vehicle)
  Arachidonic acid level vs vehicle: ↓ (1-1.49 times lower than vehicle)
  N-arachidonoyl ethanolamine level vs vehicle: ↓ (1-1.49 times lower than vehicle)
  N-arachidonoyl serine level vs vehicle: ↓↓ (1.50-1.99 times lower than vehicle)
  N-linoleoyl glycine level vs vehicle: ↓↓ (1.50-1.99 times lower than vehicle)
  N-linoleoyl serine level vs vehicle: ↓ (1-1.49 times lower than vehicle)
  N-palmitoyl ethanolamine level vs vehicle: ↓ (1-1.49 times lower than vehicle)
  N-stearoyl ethanolamine level vs vehicle: ↑ (1-1.49 times higher than vehicle)
  PGE2 level vs vehicle: ↑ (1-1.49 times higher than vehicle)
  changes in lipid levels that were decreases: 10
  changes in lipid levels that were increases: 3
  percentage of lipids detected that decreased: 18.52%
  percentage of lipids detected that increased: 5.55%
  phosphoLEA level vs vehicle: ↓ (1-1.49 times lower than vehicle)
Adult MID, 54 detected
  number of lipids changed: 13
Adult STEM
  2-arachidonoyl glycerol level vs vehicle: ↓ (1-1.49 times lower than vehicle)
  2-linoleoyl glycerol level vs vehicle: ↓ (1-1.49 times lower than vehicle)
  2-oleoyl glycerol level vs vehicle: ↓ (1-1.49 times lower than vehicle)
  2-palmitoyl glycerol level vs vehicle: ↓ (1-1.49 times lower than vehicle)
  Arachidonic acid level vs vehicle: ↓ (1-1.49 times lower than vehicle)
  Linoleic acid level vs vehicle: ↓ (1-1.49 times lower than vehicle)
  N-arachidonoyl taurine level vs vehicle: ↓ (1-1.49 times lower than vehicle)
  N-arachidonoyl tyrosine level vs vehicle: ↓↓ (1.50-1.99 times lower than vehicle)
  N-oleoyl ethanolamine level vs vehicle: ↓ (1-1.49 times lower than vehicle)
  N-palmitoyl leucine level vs vehicle: ↑ (1-1.49 times higher than vehicle)
  N-palmitoyl valine level vs vehicle: ↑ (1-1.49 times higher than vehicle)
  Oleic Acid level vs vehicle: ↓ (1-1.49 times lower than vehicle)
  PGE2 level vs vehicle: ↓ (1-1.49 times lower than vehicle)
  number of lipids changed: 13
Adult STR
  2-arachidonoyl glycerol level vs vehicle: ↓ (1-1.49 times lower than vehicle)
  Arachidonic acid level vs vehicle: ↓ (1-1.49 times lower than vehicle)
  N-arachidonoyl ethanolamine level vs vehicle: ↓↓ (1.50-1.99 times lower than vehicle)
  N-docosahexaenoyl ethanolamine level vs vehicle: ↓ (1-1.49 times lower than vehicle)
  N-linoleoyl ethanolamine level vs vehicle: ↓ (1-1.49 times lower than vehicle)
  N-oleoyl ethanolamine level vs vehicle: ↓↓ (1.50-1.99 times lower than vehicle)
  N-oleoyl leucine level vs vehicle: ↑ (1-1.49 times higher than vehicle)
  N-palmitoyl serine level vs vehicle: ↓ (1-1.49 times lower than vehicle)
  number of lipids changed: 8
Adult THAL
  2-arachidonoyl glycerol level vs vehicle: ↓ (1-1.49 times lower than vehicle)
  2-linoleoyl glycerol level vs vehicle: ↓ (1-1.49 times lower than vehicle)
  6-ketoPGF1α level vs vehicle: ↑ (1-1.49 times higher than vehicle)
  Arachidonic acid level vs vehicle: ↓ (1-1.49 times lower than vehicle)
  N-arachidonoyl GABA level vs vehicle: ↓ (1-1.49 times lower than vehicle)
  N-arachidonoyl alanine level vs vehicle: ↓↓ (1.50-1.99 times lower than vehicle)
  N-arachidonoyl ethanolamine level vs vehicle: ↓ (1-1.49 times lower than vehicle)
  N-arachidonoyl glycine level vs vehicle: ↓↓ (1.50-1.99 times lower than vehicle)
  N-oleoyl ethanolamine level vs vehicle: ↓ (1-1.49 times lower than vehicle)
  N-palmitoyl GABA level vs vehicle: ↑ (1-1.49 times higher than vehicle)
  N-palmitoyl ethanolamine level vs vehicle: ↓ (1-1.49 times lower than vehicle)
  N-palmitoyl leucine level vs vehicle: ↑ (1-1.49 times higher than vehicle)
  N-palmitoyl methionine level vs vehicle: ↑ (1-1.49 times higher than vehicle)
  N-palmitoyl valine level vs vehicle: ↑↑ (1.50-1.99 times higher than vehicle)
  Oleic Acid level vs vehicle: ↓ (1-1.49 times lower than vehicle)
  number of lipids changed: 15
Adult brain
  changes in PG levels: 14
  changes in lipoamines derived from AA: 20
  decreases in 2-acyl glycerol levels: 15
  decreases in PG levels: 8
  decreases in free fatty acid levels: 11
  increases in PG levels: 6
Adult brain, 406 detected
  percentage of detected lipids modified with acute CP: 23.89%
[1]
  2-arachidonoyl glycerol, Direction (relative to Veh): ↓
  2-arachidonoyl glycerol, Magnitude (x Veh level): 0.78 x Veh level
  2-linoleoyl glycerol Direction (relative to Veh): ↓
  2-linoleoyl glycerol Magnitude (x Veh level): 0.76 x Veh level
  2-oleoyl glycerol, Direction (relative to Veh): ↓
  2-oleoyl glycerol, Magnitude (x Veh level): 0.82 x Veh level
  2-palmitoyl glycerol, Direction (relative to Veh): ↓
  2-palmitoyl glycerol, Magnitude (x Veh level): 0.80 x Veh level
  Arachidonic acid, Direction (relative to Veh): ↓
  Arachidonic acid, Magnitude (x Veh level): 0.86 x Veh level
  Linoleic acid, Direction (relative to Veh): ↓
  Linoleic acid, Magnitude (x Veh level): 0.71 x Veh level
  N-arachidonoyl GABA level, Mean: 1.08E-11
  N-arachidonoyl alanine level, Mean: 9.45E-13
  N-arachidonoyl dopamine level, Mean: BDL
  N-arachidonoyl ethanolamine level, Mean: 1.14E-11
  N-arachidonoyl glycine level, Mean: 1.87E-12
  N-arachidonoyl phenylalanine level, Mean: 5.84E-14
  N-arachidonoyl taurine Direction (relative to Veh): ↓
  N-arachidonoyl taurine Magnitude (x Veh level): 0.94 x Veh level
  N-arachidonoyl tyrosine, Direction (relative to Veh): ↓
  N-arachidonoyl tyrosine, Magnitude (x Veh level): 0.66 x Veh level
  N-docosahexaenoyl GABA level, Mean: 7.61E-12

— publication PMC6277767, “Broad and Region-Specific Impacts of the Synthetic Cannabinoid CP 55,940 in Adolescent and Adult Female Mouse Brains” (Frontiers in Molecular Neuroscience, 2018)
